Assay results published in US9421188B2, “Combination product comprising phentermine and topiramate, and preparation method thereof” (Institute of Pharmacology and Toxicology Academy of …, priority 2012, dated 2016).

Key:
[1] = Effects of different dissolution media on release rate of sustained-release pellet of topiramate; assay type: physicochemical; conditions: artificial gastric fluid with pH of 1.2; degradation reaction
Description: In order to verify whether acidic, basic solvent media would influence the release rate of the sustained-release pellets of the present invention, 0.1 mol/L HCl (pH1.2) was prepared as artificial gastric fluid, […] phosphate buffer (pH6.8) was prepared as artificial intestinal fluid, and these media and water (500 ml) were used as release media separately, and rotation speed was 100 rpm, 37° C. 5 ml of Samples (supplemented with equivalent volume of media at the meantime) were separately taken at 1, 2, 4, 8, 12, 16, 20, 24 h, filtrated, and the subsequent filtrates were used as test solutions. High performance liquid chromatography (Appendix V D, Part II, Chinese Pharmacopoeia, 2010 Edition) was used, octylsilane-bonded silica gel was used as packing agent, 50% methanol was mobile phase, differential refractive detector was used, and flow rate was 1.5 ml per minute. 200 μl of test solution was taken and injected in liquid chromatography, and the peak area of topiramate as main drug was recorded; moreover, topiramate was taken as reference material and measured by the same method, and accumulative release percentages of drug at different time points were calculated by external standard method. The release profile of sample of Batch 1 in Example 6 (2) in the above mentioned media were drawn, and the results were shown in FIG. 2.

[2] = cited from earlier work
[3] = cited from earlier work; remark: listed apart in the source
[4] = tested on: human plasma protein; conditions: plasma concentration range of 0.5-250 μm/ml; decreases with increase of plasma concentration; cited from earlier work

## CC1(C)O[C@@H]2[C@@H](CO[C@@]3(COS(N)(=O)=O)OC(C)(C)O[C@@H]23)O1 [Topiramate, 2,3,4,5-bis-O-(1-methylethylidene)-β-D-fructopyranose sulfamate]
[1]
  Stability of topiramate in artificial gastric fluid: unstable
[2]; acetone, chloroform, dimethylsulfoxide and ethanol
  Solubility in organic solvents: freely soluble
[2]; pH of 9-10, sodium hydroxide or sodium phosphate solutions
  Solubility in alkaline solution: very freely soluble
[3]; human, in vivo
  Plasma half-life: 19 to 25 h
[3]; oral administration
  Clearance for oral administration: 22 to 36 mL/min
[4]
  Human plasma protein binding ratio: 15-41%
